ChEMBL document CHEMBL5230087, “Inhibitors of SARS-CoV-2 Entry: Current and Future Opportunities” (J Med Chem, 2020)

Legend:
[1] = Inhibition of clathrin mediated endocytosis (unknown origin); set-up: species or system Homo sapiens
[2] = Cytotoxicity against african green monkey Vero cells incubated for 3 days; type: toxicity, cell-based; details: chlorocebus sabaeus, time 3 day
[3] = target: T1, Angiotensin-converting enzyme 2 (Homo sapiens, UniProt Q9BYF1); test: Inhibition of SARS-CoV S binding to human recombinant ACE2 expressed in Escherichia coli BL21(DE3) incubated for 2 hrs by ELISA method
[4] = Inhibition of MERS-CoV S protein RBD (E367 to Y606 residues) expressed in Fc portion of the human IgG1 in CHO cells by chromatography method; set-up: species or system Middle East respiratory syndrome-related coronavirus
Human coronavirus 229E = test: Antiviral activity against HCoV-229E; type: functional, organism-based
[5] = Antiviral activity against HCoV-NL63 assessed as viral growth inhibition; type: functional, Human coronavirus NL63
[6] = target: T1, Angiotensin-converting enzyme 2; test: Inhibition of human recombinant ACE2 at 50 uM using (7Mca-Y-V-A- D -A-P- K(Knp) as a flurogenic substrate measured after 10 mins by fluorescence based analysis
Procathepsin L = Procathepsin L (Homo sapiens, UniProt P07711); test: Inhibition of human recombinant Cathepsin L […] using Z-FR-AMC as substrate incubated for 30 mins by fluorometric assay
[7] = Antiviral activity against pseudovirus SARS-CoV spike protein infected in HeLa cells over expressing ACE2 assessed as inhibition on pseudovirus infection incubated for 52 hrs by luminescence based microplate reader analysis; type: functional, cell-based
[8] = Selectivity index, ratio of CC50 for African green monkey Vero cells to EC50 for SARS-CoV-2 nCoV-2019; type: toxicity; details: read-out: Selectivity Index
[9] = target: T1, Angiotensin-converting enzyme 2; test: Inhibition of human recombinant ACE2

T1 sequence (Q9BYF1 whole entry, the tested form may be a part): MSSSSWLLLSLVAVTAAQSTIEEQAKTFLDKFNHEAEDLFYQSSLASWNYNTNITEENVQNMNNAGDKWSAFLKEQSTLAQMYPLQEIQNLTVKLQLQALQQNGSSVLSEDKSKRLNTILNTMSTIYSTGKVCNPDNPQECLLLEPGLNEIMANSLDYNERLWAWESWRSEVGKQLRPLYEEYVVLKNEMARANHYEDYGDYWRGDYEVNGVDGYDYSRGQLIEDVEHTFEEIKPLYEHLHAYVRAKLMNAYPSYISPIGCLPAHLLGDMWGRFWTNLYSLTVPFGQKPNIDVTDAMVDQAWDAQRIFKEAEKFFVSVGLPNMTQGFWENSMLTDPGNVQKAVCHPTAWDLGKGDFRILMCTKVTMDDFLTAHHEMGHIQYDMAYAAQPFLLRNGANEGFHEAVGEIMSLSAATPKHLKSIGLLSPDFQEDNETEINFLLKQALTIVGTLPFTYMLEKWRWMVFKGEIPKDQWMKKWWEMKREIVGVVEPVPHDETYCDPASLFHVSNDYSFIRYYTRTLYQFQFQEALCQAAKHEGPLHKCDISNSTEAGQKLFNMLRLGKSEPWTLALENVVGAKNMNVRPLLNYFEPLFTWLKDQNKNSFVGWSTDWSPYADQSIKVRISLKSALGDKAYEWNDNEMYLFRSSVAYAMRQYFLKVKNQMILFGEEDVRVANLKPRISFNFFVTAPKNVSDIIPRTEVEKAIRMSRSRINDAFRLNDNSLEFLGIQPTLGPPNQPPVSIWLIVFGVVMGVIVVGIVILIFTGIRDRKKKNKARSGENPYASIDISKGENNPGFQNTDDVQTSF
Procathepsin L, sequence (P07711 whole entry): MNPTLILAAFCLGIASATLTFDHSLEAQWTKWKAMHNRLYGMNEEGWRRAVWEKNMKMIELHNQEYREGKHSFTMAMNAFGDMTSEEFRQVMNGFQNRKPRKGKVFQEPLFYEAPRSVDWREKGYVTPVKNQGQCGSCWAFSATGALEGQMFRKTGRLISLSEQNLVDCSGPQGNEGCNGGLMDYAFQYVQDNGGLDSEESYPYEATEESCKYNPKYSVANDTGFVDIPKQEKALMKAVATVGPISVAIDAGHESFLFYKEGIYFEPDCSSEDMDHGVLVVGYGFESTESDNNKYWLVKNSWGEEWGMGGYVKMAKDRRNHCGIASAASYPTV

Q: With `CN(C)CCCN1c2ccccc2Sc2ccc(Cl)cc21` [CHLORPROMAZINE] as the compound, how does the IC50 [1] read?
A: Its IC50 is 7.24 µM.

Q: With `O=c1c(O)c(-c2ccc(O)c(O)c2)oc2cc(O)cc(O)c12` [QUERCETIN] as the compound, how does the CC50 at 72 h [2] read?
A: The CC50 at 72 h was 3320 µM.

Q: With `CC[C@H](C)[C@H](NC(=O)CNC(=O)[C@@H](NC(=O)[C@@H](NC(=O)[C@@H](NC(=O)[C@H](Cc1ccc(O)cc1)NC(=O)[C@@H](N)Cc1ccccc1)[C@@H](C)O)[C@@H](C)O)[C@@H](C)O)C(=O)NCC(=O)N[C@@H](Cc1ccc(O)cc1)C(=O)N[C@@H](CCC(N)=O)C(=O)N1CCC[C@@H]1C(=O)N[C@H](Cc1ccc(O)cc1)C(=O)O` as the compound, how does the IC50 [3] read?
A: The IC50 was 0.00699 µM.

Q: Which IC50 [4] does the source give for `CN1CCN(C(=O)N[C@@H](Cc2ccccc2)C(=O)N[C@H](/C=C/S(=O)(=O)c2ccccc2)CCc2ccccc2)CC1` [K-777] here?
A: The IC50 was 0.0461 µM.

Q: What about the IC50 (Human coronavirus 229E) of the same compound?
A: Its IC50 is 0.00148 µM.

Q: And the CC50 at 72 h [2]?
A: Its CC50 at 72 h is over 10 µM.

Q: And the IC50 [5]?
A: Its IC50 is 0.00678 µM.

Q: For `CC(C)CC(NC(Cc1cncn1Cc1cc(Cl)cc(Cl)c1)C(=O)O)C(=O)O` (configuration not stated), which IC50 [6] is on record?
A: Its IC50 is 0.00044 µM.

Q: With `CCN(CCO)CCCC(C)Nc1ccnc2cc(Cl)ccc12` (configuration not stated) [HYDROXYCHLOROQUINE] as the compound, how does the IC50 [6] read?
A: Its IC50 is 0.72 µM.

Q: For `CC[C@H](C)[C@H](NC(=O)[C@H](CO)NC(=O)[C@H](CCCCN)NC(=O)[C@H](CCC(N)=O)NC(=O)[C@H](CO)NC(=O)[C@@H](NC(=O)[C@@H](N)CO)[C@@H](C)O)C(=O)N[C@H](C(=O)N[C@@H](C)C(=O)N[C@@H](Cc1ccc(O)cc1)C(=O)N[C@H](C(=O)N[C@@H](CCSC)C(=O)O)[C@@H](C)O)C(C)C`, which IC50 [3] is on record?
A: Its IC50 is 0.00188 µM.

Q: Which IC50 (Procathepsin L) does the source give for `C/C(=N/NC(N)=S)c1cccs1` here?
A: The IC50 was 5.33 µM.

Q: And the EC50 [7]?
A: The EC50 was 6.4 µM.

Q: What about the CC50 at 72 h [2] of the same compound?
A: Its CC50 at 72 h is 100 µM.

Q: Which CC50 at 72 h [2] does the source give for `COc1ccc(S(=O)(=O)O)cc1/N=N/c1c(S(=O)(=O)O)cc2cc(Nc3nc(Nc4ccccc4)nc(Nc4cc(C)c(/N=N/c5cc(S(=O)(=O)O)cc6cc(S(=O)(=O)O)cc(O)c56)cc4OC)n3)ccc2c1O` here?
A: The CC50 at 72 h was 26.9 µM.

Q: Which IC50 (Procathepsin L) does the source give for `C=C(N[C@@H](CCCN=C(N)N)C(=O)Cl)[C@@H](CCCCN)NC(=O)[C@H](NC(=O)[C@H](CCCN=C(N)N)NC(=O)CCCCCCCCCC)C(C)C` here?
A: Its IC50 is 75 µM.

Q: With `CC[C@H](C)[C@@H](NC(=O)[C@H]1CCCN1C(=O)[C@H](CCC(N)=O)NC(=O)[C@H](Cc1ccc(O)cc1)NC(=O)CNC(=O)[C@H](CCCCN)NC(=O)[C@H](Cc1ccc(O)cc1)NC(=O)[C@@H](NC(=O)[C@H](Cc1ccc(O)cc1)NC(=O)[C@H](CC(C)C)NC(=O)[C@H](Cc1ccccc1)NC(=O)CN)C(C)C)C(=O)O` as the compound, how does the IC50 [3] read?
A: Its IC50 is 0.0043 µM.

Q: Which CC50 at 72 h [2] does the source give for `O=C(OC[C@H]1O[C@@H](OC(=O)c2cc(O)c(O)c(O)c2)[C@H](OC(=O)c2cc(O)c(O)c(O)c2)[C@H](OC(=O)c2cc(O)c(O)c(O)c2)[C@@H]1O)c1cc(O)c(O)c(O)c1` here?
A: The CC50 at 72 h was 1080 µM.

Q: What about the selectivity ratio [8] of the same compound?
A: The selectivity ratio was 240.

Q: With `CN(C)C(=O)COC(=O)Cc1ccc(OC(=O)c2ccc(NC(=N)N)cc2)cc1` [CAMOSTAT] as the compound, how does the IC50 (Procathepsin L) read?
A: The IC50 was 10 µM.

Q: With `O=C(Nc1ccc2c(c1)C(=O)c1ccccc1C2=O)c1ccccc1` as the compound, how does the IC50 [9] read?
A: The IC50 was 9.7 µM.

Q: What about the CC50 at 72 h [2] of the same compound?
A: The CC50 at 72 h was 20 µM.

Q: Which EC50 (Human coronavirus 229E) does the source give for `O=C(NC(Cc1ccccc1)C(=O)N1CCC(O)(c2ccc(Br)cc2)CC1)c1ccccc1` (configuration not stated) here?
A: The EC50 was 110 µM.
